Assay results taken from US6316190A (The United States of America as represented by the …).

Tests used:
[1] = system: recombinant HIV-1 NC protein; experiment: Surface plasmon resonance (BIAcore) binding of NC to immobilized biotinylated oligonucleotides; conditions: for NC binding to oligonucleotide (level and stability during washout): oligonucleotide on chip, 0.15M NaCl; for affinity for HIV-1 NC protein: oligonucleotides including the subsequence
Description: In a preferred embodiment, the assay format is surface plasmon resonance (SPR). The Kd and kinetics of the trial compound-protein interaction are determined in a BIAcore, a biosensor based on surface plasmon resonance. For this technique, protein or trial compound is coupled to a derivatized sensor chip capable of detecting changes in mass. When trial compound or protein is passed over the sensor chip, it binds to the trial compound or protein coupled to the chip, resulting in an increase in mass which is quantifiable. Measurement of the rate of association as a function of trial compound or protein concentration can be used to calculate the association rate constant (kon). After the association phase, buffer is passed over the chip and the rate of dissociation (koff) is determined. Kon is typically measured in the range 1.0×10^2 to 5.0×10^6 and koff in the range 1.0×10^-1 to 1.0×10^-6. The equilibrium constant Kd is often calculated as koff/kon and thus is typically measured in the range 10^-5 to 10^-12. Affinities measured in this manner correlate well with affinities measured in solution by fluorescence quench titration. See, Fisher and Fivash (1994) Curr. Opin. Biotechnol. 5:389-395; Fisher et al. (1994) Methods 6:389-395; Johnsson et al., (1991) Anal. Biochem., 198:268-277; Karlsson et al., (1991) J. Immunol. Methods., 145:229-240; and Johnsson et al., (1991) Anal. Biochem. 198:268-277.
NC has traditionally been described as a single-stranded nucleic acid-binding protein. To determine whether this conclusion is accurate under SPR conditions, we initially measured binding of recombinant HIV-1 NC to a single-stranded 28-base oligodeoxynucleotide. The sequence of this oligonucleotide contains 20 bases from the 3' end of HIV-1 proviral DNA (i.e., the 3' end of U5). Surface plasmon resonance (SPR) analysis was performed with biotinylated DNA immobilized at its 3' end.
This possibility was analyzed systematically in the following experiment. Four SPR chips were made containing TGTG (SEQ ID NO:3) at different densities. For each chip, the amount of streptavidin (which holds the biotinylated oligonucleotide on the chip) was measured by SPR analysis before the addition of TGTG (SEQ ID NO:3). The amount of TGTG (SEQ ID NO:3) added to each chip was then quantitated by SPR. Thus, for each chip the ratio of TGTG (SEQ ID NO:3) to streptavidin was empirically determined. Since a streptavidin molecule has four binding sites for biotinylated ligands, the number of streptavidin molecules occupied by 0, 1, 2, 3, or 4 oligonucleotides could be calculated from this ratio, using binomial expansion. Finally, the ability of each chip to bind NC with high affinity was determined by SPR.
Another important aspect of the experiments described here is that the analyses were performed in 0.15M NaCl. The sequence-independent electrostatic interaction between the positively charged NC protein and nucleic acids is obviously much lower at this moderate ionic strength than in more dilute buffers, so that the differences in affinity for different oligonucleotides are more apparent. […] The additional affinity of NC for a preferred sequence was shown by this analysis to be largely hydrophobic.

HIV-1 NC protein = experiment: Tryptophan fluorescence titration of NC with oligonucleotide, then NaCl dissociation; format: binding; conditions: for apparent affinity of NC: fluorescence; for hydrophobic component, apparent affinity constant at 1M NaCl (K°) / K° relative to expected value (weighted average of corresponding homopolymers): 1M NaCl
[2] = system: "finger swap" mutants of NC (1.1, 2.2, 2.1); experiment: SPR binding of "finger swap" mutant NC proteins to the 5' site; design: species or system HIV-1
[3] = system: 2.2 finger swap mutant protein; experiment: Fluorescence binding of 2.2 finger swap mutant protein; design: species or system HIV-1; conditions: versus wild-type protein
HIV-1 = conditions: cited from earlier work
[4] = system: synthetic peptide with a HIV-1 CCHC zinc finger; conditions: cited from earlier work
[5] = biological target: T1, HIV-1 nucleocapsid protein (NC), wild type (Human immunodeficiency virus 1, UniProt P12493 P12493:378-432); experiment: SPR; TGTG replaced by AAAA; no high-affinity binding; conditions: label: biotin
[6] = biological target: T1, HIV-1 nucleocapsid protein (NC), wild …; experiment: SPR; 0.15 M NaCl; most stable of three subsites; relatively high affinity also by fluorescence; conditions: label: biotin
[7] = biological target: T1, HIV-1 nucleocapsid protein (NC), wild …; experiment: SPR; two NC per oligo; conditions: label: biotin
[8] = biological target: T1, HIV-1 nucleocapsid protein (NC), wild …; experiment: SPR; TGTG sufficient for high-affinity binding in A context; conditions: label: biotin
[9] = biological target: T1, HIV-1 nucleocapsid protein (NC), wild …; experiment: SPR; higher level and slower washout than site I DNA
[10] = biological target: T1, HIV-1 nucleocapsid protein (NC), wild …; experiment: SPR; negligible binding; conditions: label: biotin
[11] = biological target: T1, HIV-1 nucleocapsid protein (NC), wild …; experiment: SPR; conditions: label: 3'-biotin
[12] = biological target: T1, HIV-1 nucleocapsid protein (NC), wild …; experiment: SPR; four NC per oligo; conditions: label: biotin
[13] = biological target: T1, HIV-1 nucleocapsid protein (NC), wild …; experiment: SPR; 0.15 M NaCl; second independent mode (fast-released fraction); conditions: label: biotin (SPR)
[14] = biological target: T1, HIV-1 nucleocapsid protein (NC), wild …; experiment: SPR; 0.15 M NaCl; tight binding mode (slow washout); conditions: label: biotin (SPR)
[15] = quantitative analysis of SPR data

## d(G)9
[1]; SPR
  extent of binding and retention of NC during washout relative to site 1: far lower than seen with site 1 sequences
  NC binding to oligonucleotide (level and stability during washout): clear preference
HIV-1 NC protein
  apparent affinity of NC: higher than that for the other hompolymeric oligodeoxynucleotides

## (TG)5
[1]; SPR
  number of NC molecules bound per oligonucleotide: two

## (dT)9
HIV-1 NC protein
  hydrophobic component, apparent affinity constant at 1M NaCl (K°): 5×10^1

## TGTGTG
[1]
  affinity for HIV-1 NC protein: nanomolar range

## d(GA)4
HIV-1 NC protein
  K° relative to expected value (weighted average of corresponding homopolymers): coincided with the value that would be predicted

## GACTTGTGG [Site I]
[2]
  binding of mutant proteins: some binding
[2]; versus wild-type protein
  washout of mutant proteins: washed out considerably faster than the wild-type protein
[1]; SPR
  dependence of binding on oligonucleotide density: essentially independent
  NC binding to oligonucleotide (level and stability during washout): most stable binding
HIV-1 NC protein
  apparent affinity of NC: relatively high affinity
[3]
  apparent affinity of 2.2 mutant: lower apparent affinity than that of wild-type protein

## d(IT)4
HIV-1 NC protein
  K° relative to expected value (weighted average of corresponding homopolymers): 10 times

## GACUUGUGG (chemistry not given here)
[1]; SPR
  NC binding to oligonucleotide (level and stability during washout): at a higher level and washes out more slowly than the binding to the DNA
[1]
  affinity for HIV-1 NC protein: nanomolar range

## TGTG (DNA, backbone not given here)
[1]; highest oligonucleotide density on chip (FIG. 6D)
  high-affinity binding of NC: high-affinity binding is achieved
[1]; oligonucleotide at low density (FIG. 6A)
  initial binding of NC: substantial degree of initial binding

## TGTGT
[1]; SPR
  number of NC molecules bound per oligonucleotide: single
  NC binding to oligonucleotide (level and stability during washout): high-affinity binding sites

## AAAATCTCTA [site II]
[1]; SPR
  NC binding to oligonucleotide (level and stability during washout): negligible binding

## GACTTGTGGA
[1]
  affinity for HIV-1 NC protein: nanomolar range

## d(T)10
[1]; SPR
  NC binding to oligonucleotide (level and stability during washout): detectable binding

## AAAATGTGAA
[1]; SPR
  NC binding to oligonucleotide (level and stability during washout): binding

## GCAGTGCAT [site III]
[1]; SPR
  NC binding to oligonucleotide (level and stability during washout): significant binding, but at a lower level and a more rapid loss during the washout than was observed with site I

## NC(=O)c1cccc(N=O)c1 [NOBA, 3-nitroso benzamide]
HIV-1
  effect on virus: viral inactivation
[4]
  effect on zinc of zinc finger peptide: loss of zinc

## GTGTG
[1]; SPR
  number of NC molecules bound per oligonucleotide: single
  NC binding to oligonucleotide (level and stability during washout): high-affinity binding sites

## (TG)10
[1]; SPR
  number of NC molecules bound per oligonucleotide: four

## TGTGTGTG [d(TG)4]
[1]; SPR
  dependence of binding on oligonucleotide density: essentially independent
  number of NC molecules bound per oligonucleotide: one
[1]; [15]
  Ka, binding system released more rapidly during washout: 1×10^7
  Ka, binding system responsible for slow washout: 2e+09 M⁻¹
HIV-1 NC protein
  K° relative to expected value (weighted average of corresponding homopolymers): 145 times
  hydrophobic component, apparent affinity constant at 1M NaCl (K°): 2.3×10^4
  apparent affinity of NC: highest affinity
HIV-1 NC protein; d(TG)4 versus d(IT)4, inferred from difference in affinity
  difference in binding energy: ~ 1 kcal/mole

B1: GACTAAAAGA (ssDNA)
DNA: GACTAAAAGA
[5]
  binding result: no binding

B2: site I (ssDNA)
DNA: GACTTGTGG
[6]
  binding result: binds

B3: (TG)5 (ssDNA)
DNA: TGTGTGTGTG
[7]
  binding result: binds

B4: AAAATGTGAA (ssDNA)
DNA: AAAATGTGAA
[8]
  binding result: binds

B5: site I RNA (ssRNA)
RNA: GACUUGUGG
[9]
  binding result: binds

B6: site II (ssDNA)
DNA: AAAATCTCTA
[10]
  binding result: no binding

B7: 28-mer ss oligodeoxynucleotide (HIV-1 U5 3' end) (ssDNA)
DNA: GACTTGTGGAAAATCTCTAGCAGTGCAT
[11]
  binding result: binds

B8: (TG)10 (ssDNA)
DNA: TGTGTGTGTGTGTGTGTGTG
[12]
  binding result: binds

B9: d(TG)4 (ssDNA)
DNA: TGTGTGTG
[13]
  Ka: 1e+07 M⁻¹
[14]
  Ka: 2e+09 M⁻¹
